Literature values in article PMC2946453 (Journal of pharmaceutical and biomedical analysis, 2010).
Read-outs that look alike come from different tables or passages of the source. Values belong to the compound of their own block, whether it stands above or below them.

How the values were obtained:
COX-1 [1] = conditions: read-out: IC50 COX-1; bovine aortic coronary endothelial cells
human COX-2 = conditions: read-out: IC50 COX-2
COX-1 [2] = conditions: read-out: IC50 COX-1; form of COX not mentioned
COX-2 = conditions: read-out: IC50 COX-2; form of COX not mentioned
ovine COX-1 = target: T1, ovine COX-1 (Ovis aries, UniProt P05979); conditions: read-out: Km ovine COX-1; radiolabeled arachidonic acid
T1 sequence (P05979 25-600): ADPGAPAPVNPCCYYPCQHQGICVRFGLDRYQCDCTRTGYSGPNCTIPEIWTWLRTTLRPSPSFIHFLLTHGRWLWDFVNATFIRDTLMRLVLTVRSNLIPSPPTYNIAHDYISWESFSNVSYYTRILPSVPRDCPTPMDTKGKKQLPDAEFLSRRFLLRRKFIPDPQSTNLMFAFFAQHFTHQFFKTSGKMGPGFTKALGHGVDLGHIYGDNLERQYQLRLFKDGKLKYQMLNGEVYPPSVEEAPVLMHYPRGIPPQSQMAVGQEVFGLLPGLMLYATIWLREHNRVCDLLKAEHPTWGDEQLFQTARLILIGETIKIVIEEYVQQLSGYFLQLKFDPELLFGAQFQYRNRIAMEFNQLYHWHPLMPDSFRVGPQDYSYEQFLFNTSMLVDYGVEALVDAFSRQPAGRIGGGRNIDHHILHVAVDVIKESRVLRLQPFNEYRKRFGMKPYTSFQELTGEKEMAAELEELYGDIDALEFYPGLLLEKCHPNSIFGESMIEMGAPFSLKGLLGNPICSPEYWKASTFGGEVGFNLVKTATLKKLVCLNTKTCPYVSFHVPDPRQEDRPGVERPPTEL

SMILES: O=C(O)Cc1ccccc1Nc1c(Cl)cccc1Cl [Diclofenac]
IC50 (COX-1 [1]): […]

SMILES: Oc1ccc(/C=C/c2cc(O)cc(O)c2)cc1 [Resveratrol]
IC50 (COX-1 [2]): 830 ± 440 nM | IC50 (COX-2): 990 ± 400 nM

Km (ovine COX-1): 3.7 ± 0.5 µM
SMILES: CCCCC/C=C\C/C=C\C/C=C\C/C=C\CCCC(=O)O [arachidonic acid]
